Results reported in patent US7383788B2, “Enhanced feeding and growth rates of aquatic animals fed an astaxanthin product derived from marigold extract” (DSM IP Assets B.V., priority 2002, dated 2008).

Legend:
Rainbow trout = assay: Field trial on rainbow trout in a commercial fish farm (pigmentation and growth); type: in vivo; settings: 90 ppm in feed
Protocol: A field trial with Rainbow Trout was done to assess pigmentation and growth in a commercial fish farm. The fish were grown in concrete raceways where fish were stocked in two sections of different raceways. In one section we had the control treatment which was fed with feed containing synthetic astaxanthin at 90 ppm. […] The water temperature was constant at 16° C. throughout the test as was the flow rate at 60 1/sec. Fish were fed to satiate, feed consumed was weighed for each treatment and conversion rates calculated based on the initial and final biomass.

[1] = test system: Penaeid shrimp (Litopenaeus vannamei); assay: Field trial on a commercial shrimp farm using several pigment sources to evaluate production; type: in vivo
Text: Penaeid shrimp (Litopenaeus vannamei) with an average initial weight of 0.96 gr were stocked at a density of 25.04 individuals/square meter in […]. There were three ponds for each treatment to give a total of 12 ponds. The size of the ponds differed slightly as shown in Table 3 where a summary of the yields obtained after harvesting are also presented. All ponds were fed with the same diets varying only in the type of pigment used and keeping one as a control without pigment addition. Weight of feed supplied to each pond was recorded daily and the feed conversion ratio calculated after harvesting. Culture of the shrimp was done following normal commercial procedures and doing exactly the same operations in all ponds.

Compound: CC1=C(/C=C/C(C)=C/C=C/C(C)=C/C=C/C=C(C)/C=C/C=C(C)/C=C/C2=C(C)C(=O)[C@@H](O)CC2(C)C)C(C)(C)C[C@H](O)C1=O [Synthetic astaxanthin, astaxanthin]
- Average Wt gain (Rainbow trout): 0.188 kg
- Average end Wt (Rainbow trout): 0.337 kg
- Conv. Ratio (Rainbow trout; based on initial and final biomass): 1.56
- average weight gain (Rainbow trout; end of feeding trial): 188 grams
- Feed consumed (Rainbow trout; fed to satiate): 125.2 kg
- Final Biomass (Rainbow trout; fed to satiate, 16° C.): 154.6 kg
- Harvest Kg/Hect ([1]; 25 ppm pigment in feed): 1,283 Kg/Hect
- % Survival ([1]; 25 ppm pigment in feed, at harvest after 92-100 days): 66.5%
- Feed Conv Ratio ([1]; 25 ppm pigment in feed, calculated after harvesting): 1.62
- Harvest Kg ([1]; 25 ppm pigment in feed, three ponds): 18,729 Kg
- survival rate (in words) ([1]; after harvesting): low survival rate
